Square brackets hold non-standard residues; d marks the D form. Peptide text beside a SMILES is read from it. NMeR = CN[C@@H](CCCNC(=N)N)C(=O)O; NMeF = CN[C@@H](Cc1ccccc1)C(=O)O; NMeI = CC[C@H](C)[C@H](NC)C(=O)O; NMeT = CN[C@H](C(=O)O)[C@@H](C)O; NMeK = CN[C@@H](CCCCN)C(=O)O; NMeM = CN[C@@H](CCSC)C(=O)O; NMeV = CN[C@H](C(=O)O)C(C)C; NMeA = CN[C@@H](C)C(=O)O
Key:
Set-up in all cases: concentration or dose not given beside the values
[1] = molecular target: Human immunodeficiency virus type 1 integrase (Human immunodeficiency virus 1) (UniProt Q7ZJM1); experiment: Binding affinity to HIV-1 integrase measured after overnight incubation by chemiluminescence analysis relative to IN 118-128
Human immunodeficiency virus type 1 integrase (Human immunodeficiency virus 1), sequence (Q7ZJM1 as listed by the source): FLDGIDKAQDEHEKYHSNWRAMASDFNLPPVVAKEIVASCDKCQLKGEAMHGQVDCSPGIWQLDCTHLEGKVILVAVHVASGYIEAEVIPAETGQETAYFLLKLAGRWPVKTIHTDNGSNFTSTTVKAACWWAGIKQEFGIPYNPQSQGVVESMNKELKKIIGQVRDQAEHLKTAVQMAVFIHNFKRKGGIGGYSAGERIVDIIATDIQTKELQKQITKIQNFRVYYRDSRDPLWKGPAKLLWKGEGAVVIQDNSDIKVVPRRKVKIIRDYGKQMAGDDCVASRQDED

[2] = system: Human immunodeficiency virus 1; experiment: Binding affinity to HLT-tagged HIV-1 Rev measured after overnight incubation by chemiluminescence analysis relative to IN 118-128
[3] = molecular target: Human immunodeficiency virus type 1 integrase (Human immunodeficiency virus 1) (UniProt Q7ZJM1); experiment: Binding affinity to HIV-1 integrase measured after overnight incubation by chemiluminescence analysis relative to IN 174-188
[4] = system: Human immunodeficiency virus 1; experiment: Binding affinity to HLT-tagged HIV-1 Rev measured after overnight incubation by chemiluminescence analysis relative to IN 174-188

Structure (SMILES)	Activity [1] [%]	Activity [2] [%]	Activity [3] [%]	Activity [4] [%]
CC(C)[C@@H](NC(=O)[C@@H](NC(=O)[C@@H](NC(=O)[C@H](CO)NC(=O)[C@@H](NC(=O)[C@H](Cc1ccccc1)NC(=O)[C@H](CC(N)=O)NC(=O)[C@H](CO)NC(=O)CN)[C@@H](C)O)[C@@H](C)O)[C@@H](C)O)C(=O)N[C@@H](CCCCN)C(=O)N[C@@H](C)C(=O)O	97	107		
CC(C)[C@H](NC(=O)[C@@H](NC(=O)[C@@H](NC(=O)[C@@H](CO)NC(=O)[C@@H](NC(=O)[C@H](Cc1ccccc1)NC(=O)[C@H](CC(N)=O)NC(=O)[C@H](CO)NC(=O)CN)[C@@H](C)O)[C@@H](C)O)[C@@H](C)O)C(=O)N[C@@H](CCCCN)C(=O)N[C@@H](C)C(=O)O	92	124		
CC(C)[C@H](NC(=O)[C@@H](NC(=O)[C@@H](NC(=O)[C@H](CO)NC(=O)[C@@H](NC(=O)[C@H](Cc1ccccc1)NC(=O)[C@H](CC(N)=O)NC(=O)[C@H](CO)NC(=O)CN)[C@@H](C)O)[C@@H](C)O)[C@@H](C)O)C(=O)N[C@@H](CCCCN)C(=O)N[C@H](C)C(=O)O	136	137		
CC(C)[C@H](NC(=O)[C@@H](NC(=O)[C@@H](NC(=O)[C@H](CO)NC(=O)[C@@H](NC(=O)[C@H](Cc1ccccc1)NC(=O)[C@H](CC(N)=O)NC(=O)[C@H](CO)NC(=O)CN)[C@@H](C)O)[C@@H](C)O)[C@@H](C)O)C(=O)N[C@H](CCCCN)C(=O)N[C@@H](C)C(=O)O	109	53		
CC(C)[C@H](NC(=O)[C@@H](NC(=O)[C@H](NC(=O)[C@H](CO)NC(=O)[C@@H](NC(=O)[C@H](Cc1ccccc1)NC(=O)[C@H](CC(N)=O)NC(=O)[C@H](CO)NC(=O)CN)[C@@H](C)O)[C@@H](C)O)[C@@H](C)O)C(=O)N[C@@H](CCCCN)C(=O)N[C@@H](C)C(=O)O	150	176		
CC(C)[C@H](NC(=O)[C@H](NC(=O)[C@@H](NC(=O)[C@H](CO)NC(=O)[C@@H](NC(=O)[C@H](Cc1ccccc1)NC(=O)[C@H](CC(N)=O)NC(=O)[C@H](CO)NC(=O)CN)[C@@H](C)O)[C@@H](C)O)[C@@H](C)O)C(=O)N[C@@H](CCCCN)C(=O)N[C@@H](C)C(=O)O	85	60		
CC[C@H](C)[C@H](NC(=O)[C@H](Cc1ccccc1)NC(=O)[C@@H](NC(=O)[C@H](C)NC(=O)[C@H](CCSC)NC(=O)[C@H](CCC(N)=O)NC(=O)[C@@H](NC(=O)[C@H](C)NC(=O)[C@@H](N)[C@@H](C)O)C(C)C)C(C)C)C(=O)N[C@@H](Cc1cnc[nH]1)C(=O)N[C@@H](CC(N)=O)C(=O)N[C@@H](Cc1ccccc1)C(=O)N[C@@H](CCCCN)C(=O)N[C@@H](CCCNC(=N)N)C(=O)N(C)[C@@H](CCCCN)C(=O)O (H-TAVQMAVFIHNFKR[NMeK]-OH)			117	201
CC[C@H](C)[C@H](NC(=O)[C@H](Cc1ccccc1)NC(=O)[C@@H](NC(=O)[C@H](C)NC(=O)[C@H](CCSC)NC(=O)[C@H](CCC(N)=O)NC(=O)[C@@H](NC(=O)[C@H](C)NC(=O)[C@@H](N)[C@@H](C)O)C(C)C)C(C)C)C(=O)N[C@@H](Cc1cnc[nH]1)C(=O)N[C@@H](CC(N)=O)C(=O)N[C@@H](Cc1ccccc1)C(=O)N[C@@H](CCCCN)C(=O)N(C)[C@@H](CCCNC(=N)N)C(=O)N[C@@H](CCCCN)C(=O)O (H-TAVQMAVFIHNFK[NMeR]K-OH)			123	75
CC[C@H](C)[C@H](NC(=O)[C@H](Cc1ccccc1)NC(=O)[C@@H](NC(=O)[C@H](C)NC(=O)[C@H](CCSC)NC(=O)[C@H](CCC(N)=O)NC(=O)[C@@H](NC(=O)[C@H](C)NC(=O)[C@@H](N)[C@@H](C)O)C(C)C)C(C)C)C(=O)N[C@@H](Cc1cnc[nH]1)C(=O)N[C@@H](CC(N)=O)C(=O)N[C@@H](Cc1ccccc1)C(=O)N(C)[C@@H](CCCCN)C(=O)N[C@@H](CCCNC(=N)N)C(=O)N[C@@H](CCCCN)C(=O)O (H-TAVQMAVFIHNF[NMeK]RK-OH)			130	70
CC[C@H](C)[C@H](NC(=O)[C@H](Cc1ccccc1)NC(=O)[C@@H](NC(=O)[C@H](C)NC(=O)[C@H](CCSC)NC(=O)[C@H](CCC(N)=O)NC(=O)[C@@H](NC(=O)[C@H](C)NC(=O)[C@@H](N)[C@@H](C)O)C(C)C)C(C)C)C(=O)N[C@@H](Cc1cnc[nH]1)C(=O)N[C@@H](CC(N)=O)C(=O)N(C)[C@@H](Cc1ccccc1)C(=O)N[C@@H](CCCCN)C(=O)N[C@@H](CCCNC(=N)N)C(=O)N[C@@H](CCCCN)C(=O)O (H-TAVQMAVFIHN[NMeF]KRK-OH)			122	50
CC[C@H](C)[C@@H](C(=O)N[C@@H](Cc1cnc[nH]1)C(=O)N[C@@H](CC(N)=O)C(=O)N[C@@H](Cc1ccccc1)C(=O)N[C@@H](CCCCN)C(=O)N[C@@H](CCCNC(=N)N)C(=O)N[C@@H](CCCCN)C(=O)O)N(C)C(=O)[C@H](Cc1ccccc1)NC(=O)[C@@H](NC(=O)[C@H](C)NC(=O)[C@H](CCSC)NC(=O)[C@H](CCC(N)=O)NC(=O)[C@@H](NC(=O)[C@H](C)NC(=O)[C@@H](N)[C@@H](C)O)C(C)C)C(C)C (H-TAVQMAVF[NMeI]HNFKRK-OH)			123	107
CC[C@H](C)[C@H](NC(=O)[C@H](Cc1ccccc1)N(C)C(=O)[C@@H](NC(=O)[C@H](C)NC(=O)[C@H](CCSC)NC(=O)[C@H](CCC(N)=O)NC(=O)[C@@H](NC(=O)[C@H](C)NC(=O)[C@@H](N)[C@@H](C)O)C(C)C)C(C)C)C(=O)N[C@@H](Cc1cnc[nH]1)C(=O)N[C@@H](CC(N)=O)C(=O)N[C@@H](Cc1ccccc1)C(=O)N[C@@H](CCCCN)C(=O)N[C@@H](CCCNC(=N)N)C(=O)N[C@@H](CCCCN)C(=O)O (H-TAVQMAV[NMeF]IHNFKRK-OH)			141	152
CC[C@H](C)[C@H](NC(=O)[C@H](Cc1ccccc1)NC(=O)[C@H](C(C)C)N(C)C(=O)[C@H](C)NC(=O)[C@H](CCSC)NC(=O)[C@H](CCC(N)=O)NC(=O)[C@@H](NC(=O)[C@H](C)NC(=O)[C@@H](N)[C@@H](C)O)C(C)C)C(=O)N[C@@H](Cc1cnc[nH]1)C(=O)N[C@@H](CC(N)=O)C(=O)N[C@@H](Cc1ccccc1)C(=O)N[C@@H](CCCCN)C(=O)N[C@@H](CCCNC(=N)N)C(=O)N[C@@H](CCCCN)C(=O)O (H-TAVQMA[NMeV]FIHNFKRK-OH)			67	55
CC[C@H](C)[C@H](NC(=O)[C@H](Cc1ccccc1)NC(=O)[C@@H](NC(=O)[C@H](C)N(C)C(=O)[C@H](CCSC)NC(=O)[C@H](CCC(N)=O)NC(=O)[C@@H](NC(=O)[C@H](C)NC(=O)[C@@H](N)[C@@H](C)O)C(C)C)C(C)C)C(=O)N[C@@H](Cc1cnc[nH]1)C(=O)N[C@@H](CC(N)=O)C(=O)N[C@@H](Cc1ccccc1)C(=O)N[C@@H](CCCCN)C(=O)N[C@@H](CCCNC(=N)N)C(=O)N[C@@H](CCCCN)C(=O)O (H-TAVQM[NMeA]VFIHNFKRK-OH)			99	66
CC[C@H](C)[C@H](NC(=O)[C@H](Cc1ccccc1)NC(=O)[C@@H](NC(=O)[C@H](C)NC(=O)[C@H](CCSC)N(C)C(=O)[C@H](CCC(N)=O)NC(=O)[C@@H](NC(=O)[C@H](C)NC(=O)[C@@H](N)[C@@H](C)O)C(C)C)C(C)C)C(=O)N[C@@H](Cc1cnc[nH]1)C(=O)N[C@@H](CC(N)=O)C(=O)N[C@@H](Cc1ccccc1)C(=O)N[C@@H](CCCCN)C(=O)N[C@@H](CCCNC(=N)N)C(=O)N[C@@H](CCCCN)C(=O)O (H-TAVQ[NMeM]AVFIHNFKRK-OH)			103	134
CC[C@H](C)[C@H](NC(=O)[C@H](Cc1ccccc1)NC(=O)[C@@H](NC(=O)[C@H](C)NC(=O)[C@H](CCSC)NC(=O)[C@H](CCC(N)=O)NC(=O)[C@H](C(C)C)N(C)C(=O)[C@H](C)NC(=O)[C@@H](N)[C@@H](C)O)C(C)C)C(=O)N[C@@H](Cc1cnc[nH]1)C(=O)N[C@@H](CC(N)=O)C(=O)N[C@@H](Cc1ccccc1)C(=O)N[C@@H](CCCCN)C(=O)N[C@@H](CCCNC(=N)N)C(=O)N[C@@H](CCCCN)C(=O)O (H-TA[NMeV]QMAVFIHNFKRK-OH)			118	110
CC[C@H](C)[C@H](NC(=O)[C@H](Cc1ccccc1)NC(=O)[C@@H](NC(=O)[C@H](C)NC(=O)[C@H](CCSC)NC(=O)[C@H](CCC(N)=O)NC(=O)[C@@H](NC(=O)[C@H](C)N(C)C(=O)[C@@H](N)[C@@H](C)O)C(C)C)C(C)C)C(=O)N[C@@H](Cc1cnc[nH]1)C(=O)N[C@@H](CC(N)=O)C(=O)N[C@@H](Cc1ccccc1)C(=O)N[C@@H](CCCCN)C(=O)N[C@@H](CCCNC(=N)N)C(=O)N[C@@H](CCCCN)C(=O)O (H-T[NMeA]VQMAVFIHNFKRK-OH)			75	86
CC[C@H](C)[C@H](NC(=O)[C@H](Cc1ccccc1)NC(=O)[C@@H](N)C(C)C)C(=O)N[C@@H](Cc1cnc[nH]1)C(=O)N[C@@H](CC(N)=O)C(=O)N[C@@H](Cc1ccccc1)C(=O)N[C@@H](CCCCN)C(=O)N[C@@H](CCCNC(=N)N)C(=O)N[C@@H](CCCCN)C(=O)O (H-VFIHNFKRK-OH)			132	86
CC[C@H](C)[C@H](NC(=O)[C@H](Cc1ccccc1)NC(=O)[C@@H](NC(=O)[C@H](C)NC(=O)[C@H](CCSC)NC(=O)[C@H](CCC(N)=O)NC(=O)[C@@H](N)C(C)C)C(C)C)C(=O)N[C@@H](Cc1cnc[nH]1)C(=O)N[C@@H](CC(N)=O)C(=O)N[C@@H](Cc1ccccc1)C(=O)N[C@@H](CCCCN)C(=O)N[C@@H](CCCNC(=N)N)C(=O)N[C@@H](CCCCN)C(=O)O (H-VQMAVFIHNFKRK-OH)			133	104
CC[C@H](C)[C@H](NC(=O)[C@H](Cc1ccccc1)NC(=O)[C@@H](NC(=O)[C@H](C)NC(=O)[C@H](CCSC)NC(=O)[C@H](CCC(N)=O)NC(=O)[C@@H](NC(=O)[C@H](C)NC(=O)[C@@H](NC)[C@@H](C)O)C(C)C)C(C)C)C(=O)N[C@@H](Cc1cnc[nH]1)C(=O)N[C@@H](CC(N)=O)C(=O)N[C@@H](Cc1ccccc1)C(=O)N[C@@H](CCCCN)C(=O)N[C@@H](CCCNC(=N)N)C(=O)N[C@@H](CCCCN)C(=O)O (H-[NMeT]AVQMAVFIHNFKRK-OH)			84	93

Source: ChEMBL document CHEMBL3217454, “Structureactivity relationship studies using peptide arrays: the example of HIV-1 Revintegrase interaction” (Medchemcomm, 2013)
